Assays:
PDE4D = biological target: T1, PDE4D (Homo sapiens, UniProt Q08499); assay: Recombinant PDE activity, scintillation proximity assay: PDE4D; assay type: biochemical; conditions: human recombinant active site fragment, substrate [3H]cAMP, means from n independent experiments; read-out: IC50 PDE4D2
T1 construct: PDE4D NG_027957, AA 79–438; made in house; host or cells: SF9 insect cells (baculovirus, Bac-To-Bac, pFastbac)
Protocol: For the preparation of human recombinant PDEs of interest, the Bac-To-Bac baculoviral expression system from Invitrogen (Carlsbad, CA, United States) was used according to the instruction manual. […] The plasmids were transformed into DH10Bac bacteria, SF9 insect cells were transfected with the bacmid DNA, and the resulting baculoviruses were stored and used for further rounds of infections. For protein production, SF9 cells were infected until a cytopathic effect was visible (after about 72 h), the SF9 cells were harvested and broken up by 3 freeze/thaw cycles, and by shearing 10 times through a 0.1 mm cannula using a syringe. […] The Phosphodiesterase Scintillation Proximity Assays (TRKQ7090 for [^3H]cAMP, GE Healthcare Europe GmbH, Chalfont St Giles, United Kingdom, and TRKQ7100 for [^3H]cGMP, Perkin Elmer, Waltham, MA, United States) were performed essentially according to the instruction manual. […] Assay solutions containing recombinant baculoviral-expressed PDE (to give an activity of 5.000–20.000 cpm corresponding to 5–20% of total activity added), 50 mmol/L Tris/HCl pH 7.5, 8.3 mmol/L MgCl2, 1.7 mmol/L EGTA, and 10 µL radiolabeled substrate (0.05 µCi in H2O) were incubated for 1 h at 30°C (final volume 100 μL).

PDE9A = biological target: T2, PDE9A (Homo sapiens, UniProt O76083); assay: Recombinant PDE activity, scintillation proximity assay: PDE9A; assay type: biochemical; conditions: substrate cGMP
T2 construct: the full-length open reading frames of PDE1C; made in house; host or cells: SF9 insect cells (baculovirus, Bac-To-Bac, pFastbac)
T2 sequence (O76083 whole entry): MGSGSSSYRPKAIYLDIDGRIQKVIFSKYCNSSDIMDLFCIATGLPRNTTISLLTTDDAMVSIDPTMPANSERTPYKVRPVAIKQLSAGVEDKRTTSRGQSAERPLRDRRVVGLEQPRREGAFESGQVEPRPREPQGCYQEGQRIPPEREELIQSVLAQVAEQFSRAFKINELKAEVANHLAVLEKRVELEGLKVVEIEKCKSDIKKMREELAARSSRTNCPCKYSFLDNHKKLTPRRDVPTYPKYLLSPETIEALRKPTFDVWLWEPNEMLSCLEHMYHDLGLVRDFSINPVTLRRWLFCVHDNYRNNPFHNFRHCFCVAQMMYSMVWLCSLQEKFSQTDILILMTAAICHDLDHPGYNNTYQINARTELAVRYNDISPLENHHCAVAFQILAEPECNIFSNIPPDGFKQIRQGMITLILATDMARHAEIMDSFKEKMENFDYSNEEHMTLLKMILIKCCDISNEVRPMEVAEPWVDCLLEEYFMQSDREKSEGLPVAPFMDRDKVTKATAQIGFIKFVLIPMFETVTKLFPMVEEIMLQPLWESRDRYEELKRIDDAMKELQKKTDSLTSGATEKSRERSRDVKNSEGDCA
Source text: For the preparation of human recombinant PDEs of interest, the Bac-To-Bac baculoviral expression system from Invitrogen (Carlsbad, CA, United States) was used according to the instruction manual. In short, the full-length open reading frames of PDE1C (National Center for Biotechnology Information Gene-Ref-Seq identifier NG_051183), PDE3A (NG_030033), PDE4A (NG_029594, AA 156–886), PDE4C (NG_029629), PDE7A (NG_029614), and PDE9A (NG_047067) were cloned into the plasmid vector pFastbac. For PDE4B and PDE4D, active site fragments were used (PDE4B NG_029038: AA 152–484, PDE4D NG_027957, AA 79–438). The plasmids were transformed into DH10Bac bacteria, SF9 insect cells were transfected with the bacmid DNA, and the resulting baculoviruses were stored and used for further rounds of infections. […] The protein content was measured and an equal volume of 87% (v/v) glycerol was added prior to freezing at −20°C. […] The reaction was stopped by addition of 50 µL of yttrium silicate scintillation proximity assay beads (17.8 mg/mL, 18 mM zinc sulfate in H2O) and the amount of produced [^3H]AMP/[^3H]GMP associated was determined using a Wallac Microbeta scintillation counter. […]

[1] = system: LPS-stimulated IL-6 release; assay: LPS-stimulated IL-6 release in rat whole blood; assay type: cell-based; conditions: high concentrations
Protocol: Heparinized whole blood was collected from the Aorta abdominalis of WI (Han) male rats (Charles River Laboratories, Sulzfeld, Germany) and from healthy male human donors, and treated with 1 µL (rat) or 2.5 µL (human) of BI 1015550 or vehicle [final DMSO concentration 0.5% (v/v)]. Final assay volumes were 200 μL (rat) and 500 μL (human). After incubation for 30 min at 37°C, 95% humidity, and 5% CO2, cultures were treated with LPS [final concentration 10 µg/mL (rat), 0.1 µg/mL (human)] or saline. After 7 h, plates were centrifuged at 3.200 × g at 4°C for 10 min and plasma was used for cytokine measurement. Meso Scale Discovery (MSD) (Rockville, MD, United States) rat and human pro-inflammatory panels were used for detection of TNF-α and IL-6 in rat plasma [diluted 1:2 (v/v)]) and human plasma [negative control undiluted, other samples diluted 1:200 (v/v)] according to the manufacturer’s instructions.

T1 sequence (Q08499 381-740): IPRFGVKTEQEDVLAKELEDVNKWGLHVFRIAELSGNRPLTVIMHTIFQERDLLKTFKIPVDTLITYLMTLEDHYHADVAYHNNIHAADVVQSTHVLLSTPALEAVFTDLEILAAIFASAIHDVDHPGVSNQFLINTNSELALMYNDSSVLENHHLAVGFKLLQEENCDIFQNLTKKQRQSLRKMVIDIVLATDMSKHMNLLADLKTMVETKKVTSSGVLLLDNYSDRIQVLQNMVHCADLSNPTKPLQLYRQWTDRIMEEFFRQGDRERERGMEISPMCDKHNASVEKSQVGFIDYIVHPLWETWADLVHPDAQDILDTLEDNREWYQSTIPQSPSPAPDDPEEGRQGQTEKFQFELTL

IC50 (PDE4D): 0.091 µM | IC50 (PDE9A): > 100 µM
SMILES: [O-][S+]1CCc2nc(N3CCC(c4ncc(Cl)cn4)CC3)nc(NC3(CO)CCC3)c21 (stereo not drawn) [BI 1015550]
Increase of IL-6 compared with LPS-treated samples without PDE4 inhibitor [1]: fourfold
